One block for each compound: values may come before it. The source made the active and inactive calls. The calls are words filed in the database; no cut-off is given here.
Tests used:
[1] = tested on: MIA PaCa-2; experiment: Antitumor activity against human MIAPaCa2 cells xenografted in mouse assessed as mean tumor volume at 10 mg/kg, iv administered twice per week for 28 days and measured at day 53 by Caliper method (reference value: 1.60 +/- 0.44 cm3); type: functional; conditions: time 28 day
[2] = Clearance in mouse xenografted with human MIAPaCa2 cells at 9.1 mg/kg, iv administered as single dose; type: ADME, organism-based; conditions: in vivo
[3] = Half life in mouse xenografted with human MIAPaCa2 cells at 9.1 mg/kg, iv administered as single dose; type: ADME, organism-based; conditions: in vivo
[4] = Half life in mouse xenografted with human MIAPaCa2 cells at 14 mg/kg, iv administered as single dose; type: ADME, organism-based; conditions: in vivo
[5] = tested on: PANC-1; experiment: Antiproliferative activity against human PANC1 cells assessed as growth inhibition after 96 hrs by SRB assay; type: functional
[6] = Volume of distribution at steady state in mouse xenografted with human MIAPaCa2 cells at 14 mg/kg, iv administered as single dose; type: ADME, organism-based; conditions: in vivo, read-out: Vdss
[7] = tested on: MIA PaCa-2; experiment: Antitumor activity against human MIAPaCa2 cells xenografted in mouse assessed as change in tumor volume at 1 mg/kg, iv administered twice per week for 28 days and measured at day 53 by Caliper method relative to control; type: functional; conditions: time 28 day
[8] = AUC in mouse xenografted with human MIAPaCa2 cells at 14 mg/kg, iv administered as single dose; type: ADME, organism-based; design: dose 14 mg/kg; conditions: in vivo
[9] = tested on: MIA PaCa-2; experiment: Antiproliferative activity against human MIAPaCa2 cells assessed as growth inhibition after 96 hrs by SRB assay; type: functional
[10] = tested on: Mus musculus; experiment: Down regulation of MAPK11 expression in mouse xenografted with human MIAPaCa2 cells at 15 mg/kg, iv administered twice per week for 28 days and measured on day 28 by Western blot analysis; type: functional, organism-based; conditions: time 28.0 day
[11] = tested on: Quadruplex DNA; experiment: Binding affinity to G4 quadruplex DNA in human PANC1 cells assessed as increase in number of BG4 foci at 400 nM after 24 hrs by immunofluorescence based confocal microscopic analysis; type: cell-based; conditions: PANC-1
[12] = Volume of distribution at steady state in mouse xenografted with human MIAPaCa2 cells at 9.1 mg/kg, iv administered as single dose; type: ADME, organism-based; conditions: in vivo, read-out: Vdss
[13] = AUC (infinity) in mouse xenografted with human MIAPaCa2 cells at 9.1 mg/kg, iv administered as single dose; type: ADME, organism-based; design: route intravenous, time infinity, dose 9.1 mg/kg; conditions: in vivo
[14] = tested on: CAPAN-1; experiment: Antiproliferative activity against human Capan1 cells assessed as growth inhibition after 96 hrs by SRB assay; type: functional
[15] = tested on: MIA PaCa-2; experiment: Antitumor activity against human MIAPaCa2 cells xenografted in mouse assessed as mean tumor volume at 10 mg/kg, iv administered twice per week for 28 days and measured at day 28 by Caliper method (reference value: 0.45 +/- 0.18 cm3); type: functional; conditions: time 28 day
[16] = Cmax in mouse xenografted with human MIAPaCa2 cells at 14 mg/kg, iv administered as single dose; type: ADME, organism-based; design: route intravenous, dose 14 mg/kg; conditions: in vivo
[17] = tested on: MIA PaCa-2; experiment: Antitumor activity against human MIAPaCa2 cells xenografted in mouse assessed as change in tumor volume at 15 mg/kg, iv administered twice per week for 28 days and measured at day 53 by Caliper method relative to control; type: functional; conditions: time 28 day
[18] = tested on: Mus musculus; experiment: Down regulation of MAPK11 expression in mouse xenografted with human MIAPaCa2 cells at 10 mg/kg, iv administered twice per week for 28 days and measured on day 28 by Western blot analysis; type: functional, organism-based; conditions: time 28.0 day
[19] = AUC (infinity) in mouse xenografted with human MIAPaCa2 cells at 14 mg/kg, iv administered as single dose; type: ADME, organism-based; design: route intravenous, time infinity, dose 14 mg/kg; conditions: in vivo
[20] = Apparent volume of distribution in mouse xenografted with human MIAPaCa2 cells at 14 mg/kg, iv administered as single dose; type: ADME, organism-based; conditions: in vivo, read-out: Vz
[21] = tested on: MIA PaCa-2; experiment: Antitumor activity against human MIAPaCa2 cells xenografted in mouse assessed as change in tumor volume at 10 mg/kg, iv administered twice per week for 28 days and measured at day 28 by Caliper method relative to control; type: functional; conditions: time 28 day
[22] = tested on: Mus musculus; experiment: Effect on hTERT expression in mouse xenografted with human MIAPaCa2 cells at 15 mg/kg, iv administered twice per week for 28 days and measured on day 28 by Western blot analysis; type: functional, organism-based; conditions: time 28.0 day
[23] = Cmax in mouse xenografted with human MIAPaCa2 cells at 9.1 mg/kg, iv administered as single dose; type: ADME, organism-based; design: route intravenous, dose 9.1 mg/kg; conditions: in vivo
[24] = Clearance in mouse xenografted with human MIAPaCa2 cells at 14 mg/kg, iv administered as single dose; type: ADME, organism-based; conditions: in vivo
[25] = tested on: MIA PaCa-2; experiment: Antitumor activity against human MIAPaCa2 cells xenografted in mouse assessed as change in tumor volume at 15 mg/kg, iv administered twice per week for 28 days and measured at day 28 by Caliper method relative to control; type: functional; conditions: time 28 day
[26] = tested on: Mus musculus; experiment: Effect on hTERT expression in mouse xenografted with human MIAPaCa2 cells at 10 mg/kg, iv administered twice per week for 28 days and measured on day 28 by Western blot analysis; type: functional, organism-based; conditions: time 28.0 day
[27] = tested on: MIA PaCa-2; experiment: Antitumor activity against human MIAPaCa2 cells xenografted in mouse assessed as change in tumor volume at 10 mg/kg, iv administered twice per week for 28 days and measured at day 53 by Caliper method relative to control; type: functional; conditions: time 28 day
[28] = AUC in mouse xenografted with human MIAPaCa2 cells at 9.1 mg/kg, iv administered as single dose; type: ADME, organism-based; design: dose 9.1 mg/kg; conditions: in vivo
[29] = Apparent volume of distribution in mouse xenografted with human MIAPaCa2 cells at 9.1 mg/kg, iv administered as single dose; type: ADME, organism-based; conditions: in vivo, read-out: Vz
[30] = tested on: BXPC-3; experiment: Antiproliferative activity against human BxPC3 cells assessed as growth inhibition after 96 hrs by SRB assay; type: functional
[31] = tested on: MIA PaCa-2; experiment: Antiproliferative activity against human MIAPaCa2 cells assessed as growth inhibition after 96 hrs by MTS assay relative to SOP1812; type: functional

clearance [2]: 10.9 mL/min/kg
half-life [3]: 33 h
half-life [4]: 16 h
GI50 [5]: 15.6 nM
Vd [6]: 2.2 L/kg
AUC [8]: 30600 ng·h/mL
GI50 [9]: 9 nM
Vd [12]: 5.2 L/kg
AUC(0-inf) [13]: 14500 ng·h/mL
Cmax [16]: 22100 ng/mL
AUC(0-inf) [19]: 34400 ng·h/mL
Vd [20]: 11.8 L/kg
Cmax [23]: 4520 ng/mL
clearance [24]: 8.1 mL/min/kg
AUC [28]: 11100 ng·h/mL
Vd [29]: 27.8 L/kg
GI50 [30]: 15.5 nM
Structure (SMILES): O=C1c2ccc3c4c(c(NCCN5CCCC5)cc(c24)C(=O)N1CCCN1CCOCC1)C(=O)N(CCCN1CCOCC1)C3=O
Activity [1]: 0.63 cm3
Activity [7]: -90.6%
inhibition [10]: Active
Activity [11]: Active
GI50 [14]: 26.5 nM
Activity [15]: 0.16 cm3
Activity [17]: -78.1%
inhibition [18]: inactive
Activity [21]: -64.4%
Activity [22]: inactive
Activity [25]: -73.3%
Activity [26]: inactive
Activity [27]: -60.6%

Structure (SMILES): O=C1c2cc(-c3ccccc3CN3CCCC3)c3c4c(cc(NCCN5CCCC5)c(c24)C(=O)N1CCCN1CCOCC1)C(=O)N(CCCN1CCOCC1)C3=O
growth inhibition (GI) [31]: 2.7%

Structure (SMILES): O=C1c2cc(-c3ccc(CN4CCOCC4)cc3)c3c4c(cc(NCCN5CCCC5)c(c24)C(=O)N1CCCN1CCOCC1)C(=O)N(CCCN1CCOCC1)C3=O
growth inhibition (GI) [31]: 19.2%

Structure (SMILES): O=C1c2cc(-c3cccc(CN4CCCC4)c3)c3c4c(cc(NCCN5CCCC5)c(c24)C(=O)N1CCCN1CCOCC1)C(=O)N(CCCN1CCOCC1)C3=O
growth inhibition (GI) [31]: 19.7%

Structure (SMILES): O=C1c2cc(-c3ccc(CN4CCCCCC4)cc3)c3c4c(cc(NCCN5CCCC5)c(c24)C(=O)N1CCCN1CCOCC1)C(=O)N(CCCN1CCOCC1)C3=O
growth inhibition (GI) [31]: 30.7%

Structure (SMILES): O=C1c2cc(-c3ccc(CNC4CCCC4)cc3)c3c4c(cc(NCCN5CCCC5)c(c24)C(=O)N1CCCN1CCOCC1)C(=O)N(CCCN1CCOCC1)C3=O
growth inhibition (GI) [31]: 54.9%

Structure (SMILES): O=C1c2cc(-c3ccc(CN4CCCCC4)cc3)c3c4c(cc(NCCN5CCCC5)c(c24)C(=O)N1CCCN1CCOCC1)C(=O)N(CCCN1CCOCC1)C3=O
growth inhibition (GI) [31]: 32%

Structure (SMILES): O=C(c1ccc(-c2cc3c4c(c(NCCN5CCCC5)cc5c4c2C(=O)N(CCCN2CCOCC2)C5=O)C(=O)N(CCCN2CCOCC2)C3=O)cc1)N1CCCC1
growth inhibition (GI) [31]: 10.9%

Structure (SMILES): CCN(CC)Cc1ccc(-c2cc3c4c(c(NCCN5CCCC5)cc5c4c2C(=O)N(CCCN2CCOCC2)C5=O)C(=O)N(CCCN2CCOCC2)C3=O)cc1
growth inhibition (GI) [31]: 31.1%

Structure (SMILES): O=C1c2cc(-c3ccc(N4CCCC4)cc3)c3c4c(cc(NCCN5CCCC5)c(c24)C(=O)N1CCCN1CCOCC1)C(=O)N(CCCN1CCOCC1)C3=O
growth inhibition (GI) [31]: 1.9%

Structure (SMILES): CN1CCN(Cc2ccc(-c3cc4c5c(c(NCCN6CCCC6)cc6c5c3C(=O)N(CCCN3CCOCC3)C6=O)C(=O)N(CCCN3CCOCC3)C4=O)cc2)CC1
growth inhibition (GI) [31]: 20.2%

Structure (SMILES): Nc1ccn([C@@H]2O[C@H](CO)[C@@H](O)C2(F)F)c(=O)n1 [GEMCITABINE]
inhibition [10]: inactive
Activity [17]: -75.6%
Activity [22]: inactive
Activity [25]: -71.1%
